The values that follow come from US12208106B2, “Methods of vitamin D treatment” (priority 2016, dated 2025).

One data set concerns plasma proteins. Description: Plasma protein binding of calcifediol. The note with it: human, read-out: bound to plasma proteins. The format is in vitro ADME. How it is done: The pharmacokinetics of […] were assessed in healthy subjects and subjects with CKD Stage 3 or Stage 4. […] Steady-state levels of serum total 25-hydroxyvitamin D were reached after approximately 3 months. Following multiple dose administration of […], the average steady state concentrations of serum total 25-hydroxyvitamin D were 53 ng/mL and 68 ng/mL for doses of 30 mcg and 60 mcg dose group, respectively. With respect to distribution, calcifediol is extensively bound to plasma proteins (>98%). The mean apparent volume of distribution was 8.8 L in healthy subjects following a single oral dose of […], and 30.1 L in subjects with Stage 3 or Stage 4 chronic kidney disease following repeated dosing. With respect to elimination, the mean elimination half-life of calcifediol was approximately 11 days in healthy individuals following a single dose of […], and approximately 25 days in patients with Stage 3 or Stage 4 chronic kidney disease following repeated once daily dosing. With respect to metabolism, production of calcitriol from calcifediol is catalyzed by the 1α-hydroxylase enzyme, CYP27B1, located in the kidney, parathyroid gland, and other tissues. […] Calcitriol suppresses CYP27B1 and upregulates CYP24A1. Excretion of calcifediol occurs primarily through the biliary fecal route. […]

A short description of data set [1]: Solubility of calcifediol monohydrate. It counts as physicochemical. The text has this:
In one embodiment, calcifediol is synthetically manufactured as calcifediol monohydrate. […] Chemically, calcifediol monohydrate is (3β,5Z,7E)-9,10-secocholesta-5,7,10(19)-triene-3,25-diol monohydrate and its structural formula is: […]

Molecules are shown by their SMILES. A value given as a limit tells only on which side of the number the result lay.

For the compound `C=C1CC[C@H](O)C/C1=C/C=C1\CCC[C@]2(C)[C@@H]([C@H](C)CCCC(C)(C)O)CC[C@@H]12` [calcifediol, 25-hydroxyvitamin D3], the fraction unbound with plasma proteins was less than 0.02.

Regarding `C=C1CC[C@H](O)C/C1=C/C=C1\CCC[C@]2(C)[C@@H]([C@H](C)CCCC(C)(C)O)CC[C@@H]12` [Calcifediol monohydrate, (3β,5Z,7E)-9,10-secocholesta-5,7,10(19)-triene-3,25-diol monohydrate], in data set [1], the “solubility in alcohol and fatty oils” value was “soluble”; the solubility in water result is recorded as “practically insoluble”.
